Assay results as given in patent US12083196B2, “Personal cleansing compositions with surfactants for increased foam performance” (ECOLAB USA INC., priority 2020, dated 2024).

Test: SITA Foam Analyzer foam creation
Format: physicochemical
Excerpt: The reagents used below include: • Alpha-Step® PC-48 is a C10-16 sodium methyl 2-sulfolaurate and disodium 2-sulfolaurate available from Stepan; • Stepan-Mild® L3 is a predominantly C12 reaction product of lauryl alcohol and lactic acid available from Stepan; • SLES is sodium laureth sulfate; • Cola® Teric is an amphoteric sultaine available from Colonial Chemical, Inc.; • Glucopon® […] is an alkyl polyglycoside available from BASF Corporation; • Suga® Nate is a sodium laurylglucosides hydrooxypropylsulfonate available from Colonial Chemicals, Inc; • Lathanol® LAL is a sodium lauryl sulfoacetate available from Stepan. All experiments ran through the SITA Foam Analyzer were as follows: Equipment: • 1) Foaming Apparatus • 2) SITA Software Reagents: • 1) 250 mL of each solution • 2) DI water Preparation: Equipment is prepared by turning the water bath on with ample time to warm up before running tests. Adjust water bath to desired temperature. Quality Assurance: Run a positive and negative control for every experiment. Ensure equipment is clean and free from any residual surfactant chemistry beforehand. In each experiment set, proper differentiation between chemistries can be seen if at least one of the tested chemistries has an “S” curve that depicts a change in the initial foam building and the lathering step. Experimental Procedure: • 1) Prepare water bath • 2) Open the “SITA-foam” software on the computer. […] Foam Generation • i. Series Count (cycles): number of measurement replicates (3-triplicate) • ii. Fill With: Volume of sample liquid (250 mL for each test) • iii. Stir Count: Number of stirrings for each test (70). This is also the number of measurements for each cycle. • iv. Stir Time: Stirring duration of sample (10 sec) • v. Revolution: RPM o the stirrer (900 RMP) • b. Cleansing • i. Click the shower icon to activate the automatic cleansing and rinsing function. The vessel will be cleaned automatically after each cycle of measurements. • ii. Normal cleansing will rinse out the vessel many times. Small cleansing indicates a faster cleansing process. All above parameters can be saved • 5) After setting the parameters, click on “Start Measurement” which is the green “Play” button to proceed with the experiment • 6) After each cycle of experiments automatic cleansing and rinsing is done in preparation for the next cycle of measurements as long as the instrument is connected to tap water or a cleansing liquid reservoir • 7) Each click on the green “Start Measurement” icon opens a new window. The current sample measurement results are all in the same project folder. To rename sample measurement files, right click on the open sample window, and click “save” to rename your sample file • 8) If an error occurs at any point with your sample, the measurement reading can be stopped by clicking the red square “Stop icon” or by pressing the large red button on the machine • 9) Organize the graph generated with the icons in the fourth section of the tool bar: create new plot, add/remove data from plot, change axis properties, and view properties. Click on the “Create new plot” icon to view the plot after the experiment is done or if it is still running. Right click to rename the plot, insert or remove the plot and display the foam buildup, foam decay, or both Establishing initial foaming of the single surfactants is important to establish baselines for comparison for the combinations of various surfactants. To establish the foaming properties of single surfactants, a high amount of each surfactant was analyzed in the SITA Foam Analyzer as described above. The final concentration of each surfactant in solution was 1%. The surfactants tested were sodium lauryl sulfate (SLES), a betaine, Cola® Teric CBS, Glucopon® […], Lathanol® LAL, and Suga® Nate 160NC. […] The compositions were tested for foaming using the SITA Foam Analyzer as described above. […]

For sodium laureth sulfate [SLES], the “ability to reach saturation of foam (in words)” value (SLES 0.2 wt. %, second surfactant 0.005 wt. %, FIG. 3) was “unable to reach saturation”, the foam height (cycle 0, SLES 0.2 wt. %, second surfactant 0.005 wt. %) was 0 mL and the foam height (cycle 1, SLES 0.2 wt. %, second surfactant 0.005 wt. %) was 147.3 mL. It also gave a foam height (cycle 2, SLES 0.2 wt. %, second surfactant 0.005 wt. %) of 161 mL, a foam height (cycle 3, SLES 0.2 wt. %, second surfactant 0.005 wt. %) of 168.3 mL and a foam height (cycle 4, SLES 0.2 wt. %, second surfactant 0.005 wt. %) of 172.67 mL. It also gave a foam height (cycle 5, SLES 0.2 wt. %, second surfactant 0.005 wt. %) of 174 mL, a foam height (cycle 6, SLES 0.2 wt. %, second surfactant 0.005 wt. %) of 177 mL and a foam height (cycle 7, SLES 0.2 wt. %, second surfactant 0.005 wt. %) of 185.67 mL. It also gave a foam height (cycle 8, SLES 0.2 wt. %, second surfactant 0.005 wt. %) of 188.3 mL, a foam height (cycle 9, SLES 0.2 wt. %, second surfactant 0.005 wt. %) of 193.67 mL and a foam height (cycle 10, SLES 0.2 wt. %, second surfactant 0.005 wt. %) of 200 mL. The foam height (cycle 11, SLES 0.2 wt. %, second surfactant 0.005 wt. %) was 202.3 mL, the foam height (cycle 12, SLES 0.2 wt. %, second surfactant 0.005 wt. %) was 204.67 mL and the foam height (cycle 13, SLES 0.2 wt. %, second surfactant 0.005 wt. %) was 210 mL. For the same substance, the foam height (cycle 14, SLES 0.2 wt. %, second surfactant 0.005 wt. %) was 213 mL, the foam height (cycle 15, SLES 0.2 wt. %, second surfactant 0.005 wt. %) was 217 mL and the foam height (cycle 16, SLES 0.2 wt. %, second surfactant 0.005 wt. %) was 219.3 mL. For the same substance, the foam height (cycle 17, SLES 0.2 wt. %, second surfactant 0.005 wt. %) was 221.3 mL, the foam height (cycle 18, SLES 0.2 wt. %, second surfactant 0.005 wt. %) was 222.67 mL and the foam height (cycle 19, SLES 0.2 wt. %, second surfactant 0.005 wt. %) was 224.3 mL. For the same substance, the foam height (cycle 20, SLES 0.2 wt. %, second surfactant 0.005 wt. %) was 227.67 mL, the foam height (cycle 21, SLES 0.2 wt. %, second surfactant 0.005 wt. %) was 228.3 mL and the foam height (cycle 22, SLES 0.2 wt. %, second surfactant 0.005 wt. %) was 231 mL. It also gave a foam height (cycle 23, SLES 0.2 wt. %, second surfactant 0.005 wt. %) of 232.67 mL, a foam height (cycle 24, SLES 0.2 wt. %, second surfactant 0.005 wt. %) of 234.3 mL and a foam height (cycle 25, SLES 0.2 wt. %, second surfactant 0.005 wt. %) of 235.3 mL. It also gave a foam height (cycle 26, SLES 0.2 wt. %, second surfactant 0.005 wt. %) of 237 mL, a foam height (cycle 27, SLES 0.2 wt. %, second surfactant 0.005 wt. %) of 237.67 mL and a foam height (cycle 28, SLES 0.2 wt. %, second surfactant 0.005 wt. %) of 239 mL. It also gave a foam height (cycle 29, SLES 0.2 wt. %, second surfactant 0.005 wt. %) of 239.67 mL, a foam height (cycle 30, SLES 0.2 wt. %, second surfactant 0.005 wt. %) of 240 mL and a foam height (cycle 31, SLES 0.2 wt. %, second surfactant 0.005 wt. %) of 240.67 mL. It also gave a foam height (cycle 32, SLES 0.2 wt. %, second surfactant 0.005 wt. %) of 241.3 mL, a foam height (cycle 33, SLES 0.2 wt. %, second surfactant 0.005 wt. %) of 242.3 mL and a foam height (cycle 34, SLES 0.2 wt. %, second surfactant 0.005 wt. %) of 243 mL. For the same substance, the foam height (cycle 35, SLES 0.2 wt. %, second surfactant 0.005 wt. %) was 243 mL, the foam height (cycle 36, SLES 0.2 wt. %, second surfactant 0.005 wt. %) was 243.67 mL and the foam height (cycle 37, SLES 0.2 wt. %, second surfactant 0.005 wt. %) was 244 mL. The foam height (cycle 38, SLES 0.2 wt. %, second surfactant 0.005 wt. %) was 245.3 mL, the foam height (cycle 39, SLES 0.2 wt. %, second surfactant 0.005 wt. %) was 245 mL and the foam height (cycle 40, SLES 0.2 wt. %, second surfactant 0.005 wt. %) was 245 mL. For the same substance, the foam height (cycle 41, SLES 0.2 wt. %, second surfactant 0.005 wt. %) was 245.67 mL, the foam height (cycle 42, SLES 0.2 wt. %, second surfactant 0.005 wt. %) was 246 mL and the foam height (cycle 43, SLES 0.2 wt. %, second surfactant 0.005 wt. %) was 246 mL. For the same substance, the foam height (cycle 44, SLES 0.2 wt. %, second surfactant 0.005 wt. %) was 246.67 mL, the foam height (cycle 45, SLES 0.2 wt. %, second surfactant 0.005 wt. %) was 246.67 mL and the foam height (cycle 46, SLES 0.2 wt. %, second surfactant 0.005 wt. %) was 246.67 mL. The foam height (cycle 47, SLES 0.2 wt. %, second surfactant 0.005 wt. %) was 247 mL, the foam height (cycle 48, SLES 0.2 wt. %, second surfactant 0.005 wt. %) was 247.67 mL and the foam height (cycle 49, SLES 0.2 wt. %, second surfactant 0.005 wt. %) was 247.67 mL. The foam height (cycle 50, SLES 0.2 wt. %, second surfactant 0.005 wt. %) was 248 mL, the foam height (cycle 51, SLES 0.2 wt. %, second surfactant 0.005 wt. %) was 248.67 mL and the foam height (cycle 52, SLES 0.2 wt. %, second surfactant 0.005 wt. %) was 248.67 mL. For the same substance, the foam height (cycle 53, SLES 0.2 wt. %, second surfactant 0.005 wt. %) was 248.67 mL, the foam height (cycle 54, SLES 0.2 wt. %, second surfactant 0.005 wt. %) was 250 mL and the foam height (cycle 55, SLES 0.2 wt. %, second surfactant 0.005 wt. %) was 250.3 mL. It also gave a foam height (cycle 56, SLES 0.2 wt. %, second surfactant 0.005 wt. %) of 251.3 mL, a foam height (cycle 57, SLES 0.2 wt. %, second surfactant 0.005 wt. %) of 250.3 mL and a foam height (cycle 58, SLES 0.2 wt. %, second surfactant 0.005 wt. %) of 250 mL. For the same substance, the foam height (cycle 59, SLES 0.2 wt. %, second surfactant 0.005 wt. %) was 251 mL, the foam height (cycle 60, SLES 0.2 wt. %, second surfactant 0.005 wt. %) was 251.3 mL and the foam height (cycle 61, SLES 0.2 wt. %, second surfactant 0.005 wt. %) was 251.67 mL. For the same substance, the foam height (cycle 62, SLES 0.2 wt. %, second surfactant 0.005 wt. %) was 252.67 mL, the foam height (cycle 63, SLES 0.2 wt. %, second surfactant 0.005 wt. %) was 252 mL and the foam height (cycle 64, SLES 0.2 wt. %, second surfactant 0.005 wt. %) was 253 mL. It also gave a foam height (cycle 65, SLES 0.2 wt. %, second surfactant 0.005 wt. %) of 253.67 mL, a foam height (cycle 66, SLES 0.2 wt. %, second surfactant 0.005 wt. %) of 253.67 mL and a foam height (cycle 67, SLES 0.2 wt. %, second surfactant 0.005 wt. %) of 253.67 mL. It also gave a foam height (cycle 68, SLES 0.2 wt. %, second surfactant 0.005 wt. %) of 253 mL, a foam height (cycle 69, SLES 0.2 wt. %, second surfactant 0.005 wt. %) of 253 mL and a foam height (cycle 70, SLES 0.2 wt. %, second surfactant 0.005 wt. %) of 254 mL. For the same substance, the “onset of foam saturation (in words)” value (single surfactant, 1%, FIG. 1) was “taking the longest to reach saturation”.
